Measured values: patent US10584104B2, “Carboxylic acid URAT1 inhibitor containing diarylmethane structure, preparation method and use thereof” (TIANJIN INSTITUTE OF PHARMACEUTICAL RESEARCH CO., LTD., priority 2015, dated 2020)
Where two headings read alike, the source gives them in different places.

Assays:
URAT1 [1] = target: T1, URAT1 (Homo sapiens (Human), UniProt Q96S37); assay: Inhibition of [8-14C] uric acid uptake by HEK293 cells stably expressing URAT1, test compounds at 10 μM; format: cell-based
T1 sequence (Q96S37 whole entry): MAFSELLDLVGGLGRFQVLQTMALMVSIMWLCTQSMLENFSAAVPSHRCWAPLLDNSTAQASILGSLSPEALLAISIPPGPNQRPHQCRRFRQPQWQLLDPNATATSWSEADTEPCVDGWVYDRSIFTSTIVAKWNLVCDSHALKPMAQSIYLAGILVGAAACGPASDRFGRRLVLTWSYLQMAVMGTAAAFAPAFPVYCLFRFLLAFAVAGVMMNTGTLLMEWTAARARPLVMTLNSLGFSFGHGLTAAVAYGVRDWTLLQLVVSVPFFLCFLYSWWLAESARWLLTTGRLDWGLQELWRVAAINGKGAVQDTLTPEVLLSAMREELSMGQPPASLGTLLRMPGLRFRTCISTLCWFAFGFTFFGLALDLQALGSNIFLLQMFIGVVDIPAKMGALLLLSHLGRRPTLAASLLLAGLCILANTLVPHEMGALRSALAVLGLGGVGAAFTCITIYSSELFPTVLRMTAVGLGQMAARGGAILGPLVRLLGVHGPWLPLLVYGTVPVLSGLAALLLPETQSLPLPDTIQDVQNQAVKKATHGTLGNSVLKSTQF
Protocol: (I) Inhibitory Experiment of the Test Compounds at a Concentration of 10 μM on URAT1 After trypsin digestion, the expression cells (HEK293) stably expressing URAT1 gene and mock cells were all inoculated into lysine-coated 24-well culture plates, with the cell inoculation density being 1×10^5 cells/well, and cultured in incubator at 37° C., 5% CO2 and saturated humidity for 2 days. […] After 2 min, the reaction was terminated with ice-bathed DPBS buffer solution and washing was carried out for three times. […]
wherein, control=the intensity of radioactivity corresponding to the well without the test compound test compound=the intensity of radioactivity corresponding to the well with the test compound mock=the intensity of radioactivity corresponding to the well of blank cells untransfected with URAT1

URAT1 [2] = target: T1, URAT1; assay: IC50 for inhibition of the test compounds on URAT1 (nine concentration points, 0.001-10 μM); conditions: HEK293 cells stably expressing URAT1; [8-14C] uric acid uptake; nine concentrations 0.001-10 μM
[3] = 10 μM test compound, HEK293 cells stably expressing URAT1, 30 μM [8-14C] uric acid, 2 min, read-out: Inhibition rate (%)
[4] = HEK293, read-out: Inhibition rate (%)
[5] = 10 μM test compound, HEK293 cells stably expressing URAT1, 30 μM [8-14C] uric acid, 2 min

inhibition at 10 µM (URAT1 [1]; [3]) | Structure (SMILES) | also measured
77% | CC(C)(Sc1nnc(Br)n1Cc1ccc(Cl)c2ccccc12)C(=O)O [Compound of Example 28] | –
85% | CCc1ccc(Cn2c(Br)nnc2CC(C)(C)C(=O)O)c2ccccc12 [Compound of Example 47] | –
84% | CCc1ccc(Cn2c(Br)nnc2SCC(=O)O)c2ccccc12 [Compound of Example 9] | –
81% | COc1ccc(Cn2c(Br)nnc2SCC(=O)O)c2ccccc12 [Compound of Example 16] | –
71% | CC(C)(Cc1nncn1Cc1ccc(C2CC2)c2ccccc12)C(=O)O [Compound of Example 42] | –
80% | CC(C)(Cc1nnc(F)n1Cc1ccc(C2CC2)c2ccccc12)C(=O)O [Compound of Example 43] | –
84% | N#Cc1ccc(Cn2c(Br)nnc2SCC(=O)O)c2ccccc12 [Compound of Example 14] | –
81% | CC(C)(Cc1nnc(Cl)n1Cc1ccc(C2CC2)c2ccccc12)C(=O)O [Compound of Example 44] | –
89% | CC(C)(Sc1nnc(Br)n1Cc1ccc(C#N)c2ccccc12)C(=O)O [Compound of Example 29] | –
77% | CC(C)(Sc1nnc(Br)n1Cc1cccc2ccccc12)C(=O)O [Compound of Example 22] | –
83% | Cc1ccc(Cn2c(Br)nnc2SCC(=O)O)c2ccccc12 [Compound of Example 8] | –
91% | CC(C)c1ccc(Cn2c(Br)nnc2SCC(=O)O)c2ccccc12 [Compound of Example 11] | IC50 (URAT1 [2]): 484 nM
82% | CC(C)(Cc1nnc(I)n1Cc1ccc(C2CC2)c2ccccc12)C(=O)O [Compound of Example 45] | –
78% | CC(C)(Sc1nncn1Cc1ccc(C2CC2)c2ccccc12)C(=O)O [Compound of Example 18] | –
84% | COc1ccc(Cn2c(Br)nnc2SC(C)(C)C(=O)O)c2ccccc12 [Compound of Example 31] | –
68% | O=C(O)CCc1nnc(F)n1Cc1ccc(C2CC2)c2ccccc12 [Compound of Example 33] | –
80% | CCCc1ccc(Cn2c(Br)nnc2SC(C)(C)C(=O)O)c2ccccc12 [Compound of Example 25] | IC50 (URAT1 [2]): 1010 nM
86% | CC(C)(Sc1nnc(Cl)n1Cc1ccc(C2CC2)c2ccccc12)C(=O)O [Compound of Example 20] | IC50 (URAT1 [2]): 886 nM
62% | O=C(O)CSc1nnc(F)n1Cc1ccc(C2CC2)c2ccccc12 [Compound of Example 4] | –
– | CC(C)(Sc1nnc(Br)n1-c1ccc(C2CC2)c2ccccc12)C(=O)O [Compound A, reference compound] | inhibition at 10 µM (URAT1 [1]; [4]): 55%
– | O=C(O)CSc1nnc(Br)n1Cc1ccc(C2CC2)c2ccccc12 [Compound of Example 1] | Inhibition rate (%) (URAT1 [1]; [5]): 90%; IC50 (URAT1 [2]): 201 nM
60% | O=C(O)CSc1nncn1Cc1ccc(C2CC2)c2ccccc12 [Compound of Example 3] | –
83% | O=C(O)CSc1nnc(Br)n1Cc1cccc2ccccc12 [Compound of Example 7] | –
84% | O=C(O)CCc1nnc(I)n1Cc1ccc(C2CC2)c2ccccc12 [Compound of Example 35] | –
76% | O=C(O)CSc1nnc(Cl)n1Cc1ccc(C2CC2)c2ccccc12 [Compound of Example 5] | IC50 (URAT1 [2]): 418 nM
84% | CCc1ccc(Cn2c(Br)nnc2CCC(=O)O)c2ccccc12 [Compound of Example 37] | –
82% | CC(C)(Sc1nnc(I)n1Cc1ccc(C2CC2)c2ccccc12)C(=O)O [Compound of Example 21] | –

inhibition at 10 µM (URAT1 [1]; [3]) | Structure (SMILES) | also measured
81% | CC(C)(Sc1nnc(Br)n1Cc1ccc([N+](=O)[O-])c2ccccc12)C(=O)O [Compound of Example 30] | –
78% | O=C(O)CSc1nnc(I)n1Cc1ccc(C2CC2)c2ccccc12 [Compound of Example 6] | IC50 (URAT1 [2]): 440 nM
84% | CCc1ccc(Cn2c(Br)nnc2SC(C)(C)C(=O)O)c2ccccc12 [Compound of Example 24] | –
67% | O=C(O)CCc1nncn1Cc1ccc(C2CC2)c2ccccc12 [Compound of Example 32] | –
91% | CC(C)c1ccc(Cn2c(Br)nnc2SC(C)(C)C(=O)O)c2ccccc12 [Compound of Example 26] | –
75% | O=C(O)CSc1nnc(Br)n1Cc1ccc(Cl)c2ccccc12 [Compound of Example 13] | –
94% | CC(C)(Cc1nnc(Br)n1Cc1ccc(C2CC2)c2ccccc12)C(=O)O [Compound of Example 41] | –
92% | N#Cc1ccc(Cn2c(Br)nnc2CCC(=O)O)c2ccccc12 [Compound of Example 40] | –
92% | CC(C)(Cc1nnc(Br)n1Cc1ccc(C#N)c2ccccc12)C(=O)O [Compound of Example 50] | –
93% | O=C(O)CCc1nnc(Br)n1Cc1ccc(Br)c2ccccc12 [Compound of Example 52] | IC50 (URAT1 [2]): 83 nM
93% | CC(C)c1ccc(Cn2c(Br)nnc2CC(C)(C)C(=O)O)c2ccccc12 [Compound of Example 49] | IC50 (URAT1 [2]): 487 nM
82% | CC(C)(Sc1nnc(F)n1Cc1ccc(C2CC2)c2ccccc12)C(=O)O [Compound of Example 19] | –
82% | Cc1ccc(Cn2c(Br)nnc2CCC(=O)O)c2ccccc12 [Compound of Example 36] | –
83% | Cc1ccc(Cn2c(Br)nnc2SC(C)(C)C(=O)O)c2ccccc12 [Compound of Example 23] | –
– | O=C(O)CCc1nnc(Br)n1Cc1ccc(C2CC2)c2ccccc12 [Compound of Example 2] | Inhibition rate (%) (URAT1 [1]; [5]): 91%; IC50 (URAT1 [2]): 193 nM
88% | O=C(O)CCc1nnc(Cl)n1Cc1ccc(C2CC2)c2ccccc12 [Compound of Example 34] | –
86% | CCCc1ccc(Cn2c(Br)nnc2CCC(=O)O)c2ccccc12 [Compound of Example 38] | IC50 (URAT1 [2]): 107 nM
70% | O=C(O)CSc1nnc(Br)n1Cc1ccc([N+](=O)[O-])c2ccccc12 [Compound of Example 15] | –
85% | CCCc1ccc(Cn2c(Br)nnc2SCC(=O)O)c2ccccc12 [Compound of Example 10] | IC50 (URAT1 [2]): 94 nM
76% | O=C(O)CSc1nnc(Br)n1Cc1ccc(F)c2ccccc12 [Compound of Example 12] | –
83% | CC(C)(Sc1nnc(Br)n1Cc1ccc(F)c2ccccc12)C(=O)O [Compound of Example 27] | –
– | O=C(O)CCc1nnc(Br)n1-c1ccc(C2CC2)c2ccccc12 [Compound B, reference compound] | inhibition at 10 µM (URAT1 [1]; [4]): 50%
84% | Cc1ccc(Cn2c(Br)nnc2CC(C)(C)C(=O)O)c2ccccc12 [Compound of Example 46] | –
92% | CC(C)c1ccc(Cn2c(Br)nnc2CCC(=O)O)c2ccccc12 [Compound of Example 39] | IC50 (URAT1 [2]): 381 nM
93% | CC(C)(Sc1nnc(Br)n1Cc1ccc(C2CC2)c2ccccc12)C(=O)O [Compound of Example 17] | IC50 (URAT1 [2]): 1020 nM
85% | CCCc1ccc(Cn2c(Br)nnc2CC(C)(C)C(=O)O)c2ccccc12 [Compound of Example 48] | IC50 (URAT1 [2]): 512 nM
